From US9486447B2, “Compositions and methods for controlling neuronal excitation” (The General Hospital Corporation, priority 2011, dated 2016)
Where “and” joins values, the source holds several entries; their conditions need not be identical. Equal values may be shown once.

Columns and labels:
Experiment in all cases: NIMH PDSP binding assay
Conditions in all cases: primary screening, mean of N = 4 determinations
[1] = target: A2B4 (Rattus norvegicus, UniProt P12389+P12392)
Excerpt: (§1) To determine if optovin's mechanism of action could be predicted via behavioral profiling^30,32, optovin's behavioral profile was compared to the behavioral profiles of 700 annotated neuroactive compounds tested in triplicate. These compounds include ligands targeting the adrenergic, serotonergic, histaminergic, dopaminergic, cholinergic and glutamatergic pathways. […] To gain insight into optovin's mechanism of action, optovin and two active optovin analogs were profiled using the National Institutes of Mental Health Psychoactive Drug Screening Program (NIMH PDSP) to determine their activities against a panel of human and rodent CNS receptors, channels and transporters.
(§2) Activity determinations were generously provided by the National Institute of Mental Health's Psychoactive Drug Screening Program, Contract # HHSN-271-2008-00025-C(NIMH PDSP). Complete assay details are found on-line at: http://pdsp.med.unc.edu/UNC-CH %20Protocol %20Book.pdf

[2] = target: T1, DAT (Homo sapiens, UniProt Q01959)
T1 construct: NIMH PDSP
Excerpt: as §1, §2

[3] = target: Alpha1B (Homo sapiens, UniProt P35368)
Excerpt: as §1, §2

[4] = target: 5-ht1e (Homo sapiens, UniProt P28566)
Excerpt: as §1, §2

[5] = target: 5-HT1D (Homo sapiens, UniProt P28221)
Excerpt: as §1, §2

[6] = tested on: GABAA
Excerpt: as §1, §2

[7] = target: 5-HT2A (Homo sapiens, UniProt P28223)
Excerpt: as §1, §2

[8] = target: T2, NET (Homo sapiens, UniProt P23975)
T2 construct: NIMH PDSP
Excerpt: as §1, §2

[9] = target: T3, MOR (Homo sapiens, UniProt P35372)
T3 construct: NIMH PDSP
Excerpt: as §1, §2

[10] = target: T4, Beta2 (Homo sapiens, UniProt P07550)
T4 construct: NIMH PDSP
Excerpt: as §1, §2

[11] = target: T5, M1 (Homo sapiens, UniProt P11229)
T5 construct: NIMH PDSP
Excerpt: as §1, §2

[12] = target: T6, D1 (Homo sapiens, UniProt P21728)
T6 construct: NIMH PDSP
Excerpt: as §1, §2

[13] = target: 5-HT2B (Homo sapiens, UniProt P41595)
Excerpt: as §1, §2

[14] = target: A4B2 (Rattus norvegicus, UniProt P09483+P12390)
Excerpt: as §1, §2

[15] = target: T7, D5 (Homo sapiens, UniProt P21918)
T7 construct: NIMH PDSP
Excerpt: as §1, §2

[16] = target: T8, DOR (Homo sapiens, UniProt P41143)
T8 construct: NIMH PDSP
Excerpt: as §1, §2

[17] = target: 5-ht5a (Homo sapiens, UniProt P47898)
Excerpt: as §1, §2

[18] = target: T9, M3 (Homo sapiens, UniProt P20309)
T9 construct: NIMH PDSP
Excerpt: as §1, §2

[19] = target: T10, M5 (Homo sapiens, UniProt P08912)
T10 construct: NIMH PDSP
Excerpt: as §1, §2

[20] = target: Alpha2C (Homo sapiens, UniProt P18825)
Excerpt: as §1, §2

[21] = tested on: Sigma 1
Excerpt: as §1, §2

[22] = target: T11, H1 (Homo sapiens, UniProt P35367)
T11 construct: NIMH PDSP
Excerpt: as §1, §2

[23] = target: T12, D2 (Homo sapiens, UniProt P14416)
T12 construct: NIMH PDSP
Excerpt: as §1, §2

[24] = target: T13, KOR (Homo sapiens, UniProt P41145)
T13 construct: NIMH PDSP
Excerpt: as §1, §2

[25] = target: T14, D4 (Homo sapiens, UniProt P21917)
T14 construct: NIMH PDSP
Excerpt: as §1, §2

[26] = target: Alpha1A (Homo sapiens, UniProt P35348)
Excerpt: as §1, §2

[27] = target: T15, Beta1 (Homo sapiens, UniProt P08588)
T15 construct: NIMH PDSP
Excerpt: as §1, §2

[28] = target: PBR (Rattus norvegicus, UniProt P16257)
Excerpt: as §1, §2

[29] = target: T16, M2 (Homo sapiens, UniProt P08172)
T16 construct: NIMH PDSP
Excerpt: as §1, §2

[30] = target: 5-HT6 (Homo sapiens, UniProt P50406)
Excerpt: as §1, §2

[31] = target: Alpha2A (Homo sapiens, UniProt P08913)
Excerpt: as §1, §2

[32] = target: Sigma 2 (Rattus norvegicus, UniProt Q5U3Y7)
Excerpt: as §1, §2

[33] = target: Alpha2B (Homo sapiens, UniProt P18089)
Excerpt: as §1, §2

[34] = target: 5-HT1A (Homo sapiens, UniProt P08908)
Excerpt: as §1, §2

[35] = tested on: BZP Rat Brain Site
Excerpt: as §1, §2

[36] = target: A3B2 (Rattus norvegicus, UniProt P04757+P12390)
Excerpt: as §1, §2

[37] = target: 5-HT2C (Homo sapiens, UniProt P28335)
Excerpt: as §1, §2

[38] = target: T17, Beta3 (Homo sapiens, UniProt P13945)
T17 construct: NIMH PDSP
Excerpt: as §1, §2

[39] = target: 5-HT3 (Homo sapiens, UniProt P46098)
Excerpt: as §1, §2

[40] = target: A4B4 (Rattus norvegicus, UniProt P09483+P12392)
Excerpt: as §1, §2

[41] = target: T18, M4 (Homo sapiens, UniProt P08173)
T18 construct: NIMH PDSP
Excerpt: as §1, §2

T5 sequence (P11229 whole entry): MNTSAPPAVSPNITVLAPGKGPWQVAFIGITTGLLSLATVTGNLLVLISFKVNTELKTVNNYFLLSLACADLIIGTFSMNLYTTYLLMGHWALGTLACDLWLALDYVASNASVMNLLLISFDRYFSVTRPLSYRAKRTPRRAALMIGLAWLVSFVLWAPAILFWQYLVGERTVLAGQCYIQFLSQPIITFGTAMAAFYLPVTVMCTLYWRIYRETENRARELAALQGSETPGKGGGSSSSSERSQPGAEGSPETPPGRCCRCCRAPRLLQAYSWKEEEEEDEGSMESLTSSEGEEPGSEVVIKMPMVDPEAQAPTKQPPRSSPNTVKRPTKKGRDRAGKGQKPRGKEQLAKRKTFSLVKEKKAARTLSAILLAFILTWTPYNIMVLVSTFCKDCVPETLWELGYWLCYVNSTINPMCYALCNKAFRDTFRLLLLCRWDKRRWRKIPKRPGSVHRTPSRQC
A4B2, sequence (P09483 31-630): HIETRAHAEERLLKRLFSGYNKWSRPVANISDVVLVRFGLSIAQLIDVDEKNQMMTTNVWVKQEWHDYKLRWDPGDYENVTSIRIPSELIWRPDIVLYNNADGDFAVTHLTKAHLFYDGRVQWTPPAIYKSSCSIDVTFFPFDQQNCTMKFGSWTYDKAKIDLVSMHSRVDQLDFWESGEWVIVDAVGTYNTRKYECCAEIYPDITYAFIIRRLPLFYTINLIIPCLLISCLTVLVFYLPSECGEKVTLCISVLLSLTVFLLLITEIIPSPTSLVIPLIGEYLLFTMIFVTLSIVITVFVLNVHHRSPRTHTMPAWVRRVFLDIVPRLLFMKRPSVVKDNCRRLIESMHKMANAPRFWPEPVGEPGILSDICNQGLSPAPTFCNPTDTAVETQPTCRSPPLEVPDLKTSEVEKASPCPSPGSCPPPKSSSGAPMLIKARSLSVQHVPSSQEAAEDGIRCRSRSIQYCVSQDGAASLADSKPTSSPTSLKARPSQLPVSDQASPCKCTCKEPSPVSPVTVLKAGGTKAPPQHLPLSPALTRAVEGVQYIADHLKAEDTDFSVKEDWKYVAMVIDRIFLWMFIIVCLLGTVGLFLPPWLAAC
A4B2, sequence (P12390 25-500): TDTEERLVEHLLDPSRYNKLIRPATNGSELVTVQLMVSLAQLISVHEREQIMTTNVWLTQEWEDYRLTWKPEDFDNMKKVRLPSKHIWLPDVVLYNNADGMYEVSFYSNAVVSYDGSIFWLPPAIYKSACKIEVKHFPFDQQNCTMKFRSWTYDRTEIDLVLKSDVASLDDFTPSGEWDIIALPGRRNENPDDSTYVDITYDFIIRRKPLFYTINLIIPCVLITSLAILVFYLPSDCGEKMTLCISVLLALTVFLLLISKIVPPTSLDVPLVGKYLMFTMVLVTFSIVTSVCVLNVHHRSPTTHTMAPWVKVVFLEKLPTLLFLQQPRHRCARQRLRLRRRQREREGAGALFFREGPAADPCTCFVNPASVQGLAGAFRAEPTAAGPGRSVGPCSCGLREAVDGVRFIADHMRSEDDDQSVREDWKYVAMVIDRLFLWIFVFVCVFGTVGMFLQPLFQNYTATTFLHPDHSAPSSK
T12 sequence (P14416 whole entry): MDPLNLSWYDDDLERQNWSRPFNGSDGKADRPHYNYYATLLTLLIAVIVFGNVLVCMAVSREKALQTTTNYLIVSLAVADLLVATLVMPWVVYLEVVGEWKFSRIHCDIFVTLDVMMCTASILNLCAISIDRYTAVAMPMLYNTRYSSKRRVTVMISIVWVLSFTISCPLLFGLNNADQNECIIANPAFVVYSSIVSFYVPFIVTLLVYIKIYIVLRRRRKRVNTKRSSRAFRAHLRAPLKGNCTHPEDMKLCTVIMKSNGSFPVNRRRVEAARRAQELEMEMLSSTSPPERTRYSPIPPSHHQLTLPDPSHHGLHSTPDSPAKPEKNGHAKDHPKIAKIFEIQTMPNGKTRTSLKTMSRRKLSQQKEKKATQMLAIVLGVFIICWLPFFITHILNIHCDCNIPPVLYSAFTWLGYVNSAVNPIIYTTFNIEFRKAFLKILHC
5-HT1A, sequence (P08908 whole entry, species assumed): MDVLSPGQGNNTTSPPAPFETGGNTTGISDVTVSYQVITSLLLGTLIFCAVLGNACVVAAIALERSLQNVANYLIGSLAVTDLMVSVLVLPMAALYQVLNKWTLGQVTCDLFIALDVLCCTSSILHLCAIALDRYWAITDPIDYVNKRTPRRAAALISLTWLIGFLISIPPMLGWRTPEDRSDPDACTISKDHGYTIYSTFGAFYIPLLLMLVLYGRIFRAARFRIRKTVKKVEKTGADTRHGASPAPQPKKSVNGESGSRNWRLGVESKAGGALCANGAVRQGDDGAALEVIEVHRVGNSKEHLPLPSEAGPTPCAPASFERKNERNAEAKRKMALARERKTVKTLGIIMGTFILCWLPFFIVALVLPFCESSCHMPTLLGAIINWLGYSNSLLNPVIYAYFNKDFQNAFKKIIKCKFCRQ
A2B4, sequence (P12389 28-511): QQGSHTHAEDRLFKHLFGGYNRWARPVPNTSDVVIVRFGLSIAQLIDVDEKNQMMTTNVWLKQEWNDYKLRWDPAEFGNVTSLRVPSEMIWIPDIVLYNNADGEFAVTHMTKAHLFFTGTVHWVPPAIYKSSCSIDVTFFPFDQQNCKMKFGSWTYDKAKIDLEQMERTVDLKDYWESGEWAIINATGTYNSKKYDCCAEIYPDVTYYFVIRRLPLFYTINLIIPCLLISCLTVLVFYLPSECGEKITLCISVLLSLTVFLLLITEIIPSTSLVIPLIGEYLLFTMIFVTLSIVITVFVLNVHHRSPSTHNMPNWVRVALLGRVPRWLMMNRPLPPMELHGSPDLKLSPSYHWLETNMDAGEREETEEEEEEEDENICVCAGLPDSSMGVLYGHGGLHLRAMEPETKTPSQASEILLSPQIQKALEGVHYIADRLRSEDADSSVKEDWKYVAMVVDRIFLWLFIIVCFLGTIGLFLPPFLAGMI
A2B4, sequence (P12392 21-495): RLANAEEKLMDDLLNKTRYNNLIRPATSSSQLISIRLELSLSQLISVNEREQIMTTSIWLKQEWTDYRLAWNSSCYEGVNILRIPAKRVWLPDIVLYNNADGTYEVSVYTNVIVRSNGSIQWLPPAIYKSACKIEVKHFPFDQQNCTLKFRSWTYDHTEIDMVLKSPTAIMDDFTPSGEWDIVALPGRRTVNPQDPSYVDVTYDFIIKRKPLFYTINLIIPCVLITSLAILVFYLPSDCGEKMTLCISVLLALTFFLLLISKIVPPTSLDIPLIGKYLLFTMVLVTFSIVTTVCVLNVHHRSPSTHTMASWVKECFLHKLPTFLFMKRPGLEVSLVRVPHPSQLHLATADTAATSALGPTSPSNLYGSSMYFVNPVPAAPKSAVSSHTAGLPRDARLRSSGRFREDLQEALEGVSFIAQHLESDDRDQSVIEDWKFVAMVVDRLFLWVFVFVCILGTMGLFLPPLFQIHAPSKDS
5-HT1D, sequence (P28221 whole entry, species assumed): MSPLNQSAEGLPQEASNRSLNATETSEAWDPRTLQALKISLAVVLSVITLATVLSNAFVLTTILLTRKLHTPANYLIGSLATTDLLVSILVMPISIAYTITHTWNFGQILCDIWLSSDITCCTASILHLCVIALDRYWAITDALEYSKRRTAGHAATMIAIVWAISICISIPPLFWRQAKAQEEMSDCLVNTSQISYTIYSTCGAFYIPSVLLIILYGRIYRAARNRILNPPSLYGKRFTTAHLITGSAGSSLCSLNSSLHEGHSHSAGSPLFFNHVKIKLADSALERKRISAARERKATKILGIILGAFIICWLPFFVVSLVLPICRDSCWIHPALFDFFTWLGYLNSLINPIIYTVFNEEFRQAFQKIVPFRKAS
T11 sequence (P35367 whole entry): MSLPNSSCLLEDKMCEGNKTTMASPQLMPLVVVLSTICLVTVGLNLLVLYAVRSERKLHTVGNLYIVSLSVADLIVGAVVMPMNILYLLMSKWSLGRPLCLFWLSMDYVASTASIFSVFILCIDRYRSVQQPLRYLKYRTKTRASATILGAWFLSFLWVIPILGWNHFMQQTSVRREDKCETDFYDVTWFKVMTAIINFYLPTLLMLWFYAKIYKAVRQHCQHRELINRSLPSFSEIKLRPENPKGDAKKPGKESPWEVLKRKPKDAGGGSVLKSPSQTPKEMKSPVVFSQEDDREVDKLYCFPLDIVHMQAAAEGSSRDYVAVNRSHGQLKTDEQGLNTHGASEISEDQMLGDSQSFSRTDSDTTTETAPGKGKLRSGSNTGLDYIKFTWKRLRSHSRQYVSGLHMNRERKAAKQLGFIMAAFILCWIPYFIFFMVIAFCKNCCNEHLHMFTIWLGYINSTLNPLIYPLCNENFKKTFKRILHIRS
5-HT6, sequence (P50406 whole entry, species assumed): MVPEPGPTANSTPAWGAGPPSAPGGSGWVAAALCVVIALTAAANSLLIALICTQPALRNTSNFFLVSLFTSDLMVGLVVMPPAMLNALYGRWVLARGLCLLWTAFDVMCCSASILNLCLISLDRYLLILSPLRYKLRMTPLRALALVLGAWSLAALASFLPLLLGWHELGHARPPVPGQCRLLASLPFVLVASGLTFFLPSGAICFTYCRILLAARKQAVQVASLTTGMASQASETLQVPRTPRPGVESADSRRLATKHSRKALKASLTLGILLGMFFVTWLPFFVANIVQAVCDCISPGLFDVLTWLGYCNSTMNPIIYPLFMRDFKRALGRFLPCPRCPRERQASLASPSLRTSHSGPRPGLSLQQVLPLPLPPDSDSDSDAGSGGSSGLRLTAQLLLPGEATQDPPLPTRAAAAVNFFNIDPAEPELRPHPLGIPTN
A4B4, sequence (P09483 31-630): as the sequence (P09483 31-630) above
A4B4, sequence (P12392 21-495): as the sequence (P12392 21-495) above
Sigma 2, sequence (Q5U3Y7 whole entry): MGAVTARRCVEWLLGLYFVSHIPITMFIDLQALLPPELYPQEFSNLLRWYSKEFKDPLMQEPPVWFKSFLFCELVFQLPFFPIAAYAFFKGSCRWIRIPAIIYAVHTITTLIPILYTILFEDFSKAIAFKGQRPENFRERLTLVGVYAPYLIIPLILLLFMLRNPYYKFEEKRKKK

SMILES: Cc1cc(/C=C2/SC(=S)NC2=O)c(C)n1-c1cccnc1 [optovin]
- Avg % inhibition (A2B4) [1]: −7.8%
- Avg % inhibition (DAT) [2]: 1.5%
- Avg % inhibition (Alpha1B) [3]: 7.2%
- Avg % inhibition (5-ht1e) [4]: −21.5%
- Avg % inhibition (5-HT1D) [5]: 12.9%
- Avg % inhibition (GABAA) [6]: −2.2%
- Avg % inhibition (5-HT2A) [7]: −1.1%
- Avg % inhibition (NET) [8]: −1.3%
- Avg % inhibition (MOR) [9]: −0.7%
- Avg % inhibition (Beta2) [10]: −3.8%
- Avg % inhibition (M1) [11]: 32.9% and 16.9%
- Avg % inhibition (D1) [12]: 9.0%
- Avg % inhibition (5-HT2B) [13]: −2.0%
- Avg % inhibition (A4B2) [14]: −26.8%
- Avg % inhibition (A4B2**) [14]: −29.1%
- Avg % inhibition (D5) [15]: 13.6%
- Avg % inhibition (DOR) [16]: −7.2%
- Avg % inhibition (5-ht5a) [17]: −17.7%
- Avg % inhibition (M3) [18]: 9.1%
- Avg % inhibition (M5) [19]: 3.7%
- Avg % inhibition (Alpha2C) [20]: 3.3%
- Avg % inhibition (Sigma 1) [21]: −13.7%
- Avg % inhibition (H1) [22]: 1.1%
- Avg % inhibition (D2) [23]: −6.8%
- Avg % inhibition (KOR) [24]: 10.9%
- Avg % inhibition (D4) [25]: 0.2%
- Avg % inhibition (Alpha1A) [26]: −5.4%
- Avg % inhibition (Beta1) [27]: 19.4%
- Avg % inhibition (PBR) [28]: −11.3%
- Avg % inhibition (M2) [29]: 6.6%
- Avg % inhibition (5-HT6) [30]: −16.5%
- Avg % inhibition (Alpha2A) [31]: 40.5%
- Avg % inhibition (Sigma 2) [32]: 16.0%
- Avg % inhibition (Alpha2B) [33]: 8.9%
- Avg % inhibition (5-HT1A) [34]: 6.7%
- Avg % inhibition (BZP Rat Brain Site) [35]: 5.3%
- Avg % inhibition (A3B2) [36]: −5.6%
- Avg % inhibition (5-HT2C) [37]: 7.0%
- Avg % inhibition (Beta3) [38]: 20.2%
- Avg % inhibition (5-HT3) [39]: −1.7%
- Avg % inhibition (A4B4) [40]: −8.8%
- Avg % inhibition (M4) [41]: 3.5%
